Laboratory results as given in patent publication US20240294525A1, “COMPOUNDS AS GLP-1 RECEPTOR AGONISTS AND USES THEREOF” (CGENETECH (SUZHOU, CHINA) CO., LTD., priority 2021, published 2024).

Experiments:
GLP-1R = GLP-1R (Homo sapiens, UniProt P43220); assay: GLP-1R cAMP experiment (HTRF cAMP agonist detection); assay type: cell-based; conditions: GLP-1R-HEK293 cells
Method: The initial concentration was 500 nM, the compounds were diluted according to a 4-fold gradient in a total of 10 concentrations, and the diluent was dimethyl sulfoxide.
• 1) 100 nL of each compound was transferred to a OptiPlate 384-well plate by using an Echo liquid transfer system; and • 2) the 384-well plate was centrifuged at 1000 rpm for 5 s.
• 1) According to a conventional cell thawing method, a GLP-1R-HEK293 cell line was rapidly thawed in a 37° C. water bath; • 2) the cell suspension was transferred to a 15 mL centrifuge tube containing 10 mL of 1×HBSS solution; • 3) at room temperature, the tube was centrifuged at 1000 rpm for 5 min, to collect cells; 4) a supernatant was discarded carefully, and attention was paid to avoid sucking away the cells; • 5) the centrifuge tube was flicked gently, so that the cells were loosened, and 10 mL of 1×HBSS solution was added to resuspend the cells. The cells were blown and beaten up and down by using a sterile pipette, until the cells were blown and beaten to a single-cell state; • 6) the cells were counted by using a Vi-cell counter, to determine the cell concentration and determine the cell activity; • 7) GLP-1R-HEK293 cells were resuspended in a cAMP detection buffer solution (from the above cAMP detection kit), and the concentration was 2.0×10^5/mL; and 8) 10 μL of the GLP-1R-HEK293 cells was transferred into the OptiPlate 384-well plate. 2.4 HTRF cAMP Agonist Detection • 1) The 384-well plate was incubated at room temperature for 20 min, then a cAMP detection reagent (from the above cAMP detection kit) was added; • 2) an electric multi-channel pipette was used to add 10 μL of the cAMP detection reagent to each well; • 3) the 384-well plate was covered by using a TopSeal-A film, and incubated at room temperature for 60 min; and • 4) the TopSeal-A film was removed, and a signal on an Envision instrument was read.

[1] = Oral pharmacokinetics in mice; assay type: in vivo, C57 mice; conditions: 10 mg/kg
Method: Healthy male C57 mice (9 mice per compound, n=3), purchased from Shanghai Jihui Laboratory Animal Care Co., LTD, with an age of 6-8 weeks.
The mice were fasted overnight before oral administration, and drunk freely, and feeding was resumed after 4 h of the administration. According to the weight of the mice weighed before the administration, the administration dose was calculated. It was intragastrically administered, and the administration dose was 10 mg/kg. At 0.083 h, 0.25 h, 0.5 h, 1 h, 2 h, 4 h, 8 h, and 24 h after the administration to test animals, about 110 μL of whole blood were respectively collected from submandibular veins of the mice by a semi-continuous method, and placed in a test tube containing K2EDTA. The tube was placed on ice, and centrifuged within 30 min (2000 g, 5 min, 4° C.), plasma was collected, transferred to an appropriately labeled test tube, and frozen at −80° C. in a refrigerator.
A chromatographic column was Waters ACQUITY UPLC BEH C18 (2.1×50 mm, and 1.7 μm); mobile phase A: H2O-0.025% FA-1 mM NH4OAC, mobile phase B: ACN-0.025% FA-1 mM NH4OAC, flow rate: 0.60 mL/min, gradient elution program: start, 2% B, 0.2 min; 60% B, 0.7 min; 90% B, 1.50 min; 90% B, 2.0 min; 2% B, 2.01 min; 2.6 min, and stop; column temperature: 50° C.; and injection volume: 1 μL.
Mass spectrometry method: LC-MS/MS-49 (Triple Quad 6500+)(SCIEX, USA), the ion source was an ESI source, the detection mode was positive ion detection, and the scanning mode was a multi-reaction monitoring (MRM) mode, m/z: 446.20/321.10 Da (Glipizide, internal standard).
10 μL of a plasma sample was taken and 200 μL of an internal standard working solution (Glipizide, 50 ng/mL) was added, vortex was performed for 1 min, then the mixture was centrifuged at 5800 rpm for 10 min. 70 μL of a supernatant was transferred to a 96-well plate, and 1 μL of the supernatant was taken and injected into LC-MS/MS for analysis.
Pharmacokinetic (PK) parameters were calculated by using Phoenix WinNonlin 7.0; and the oral pharmacokinetic parameters of the mice, including AUC, Cmax, Tmax, T1/2 and the like, were estimated by using a non-compartmental model. […] PGP-46 T2

[2] = test system: patients with Type-2 diabetes mellitus; conditions: first-phase clinical; cited from earlier work
[3] = test system: hGLP-1R transgenic mouse B-hGLP-1R; assay: Mouse intraperitoneal glucose tolerance test (IPGTT); assay type: in vivo; conditions: hGLP-1R mice, 10 mg/kg oral gavage
Excerpt: Specific steps were as follows: • 1) After the arrival of experimental animals (hGLP-1R transgenic mouse B-hGLP-1R, SPF-grade mouse, male, 6-8 weeks, and purchased from Baiosaitu Jiangsu Gene Biotechnology Co., Ltd.), all experimental animals were divided into one animal per cage and fed and adapted for 7 days before the start of the experiment (during which the health status of the animals was observed). At least 3 days before the start of IPGTT, the animals were weighed and solvent (0.5% methylcellulose solution) intragastric administration and intraperitoneal saline injection were performed. • 2) On the day before the experiment, the experimental animals were fasted overnight (14 h, 19:00-9:00), and at 9:00 am, the experimental animals were weighed and blood was collected from tail tips to measure the blood glucose.

Chain of GLP-1R (P43220 24-463): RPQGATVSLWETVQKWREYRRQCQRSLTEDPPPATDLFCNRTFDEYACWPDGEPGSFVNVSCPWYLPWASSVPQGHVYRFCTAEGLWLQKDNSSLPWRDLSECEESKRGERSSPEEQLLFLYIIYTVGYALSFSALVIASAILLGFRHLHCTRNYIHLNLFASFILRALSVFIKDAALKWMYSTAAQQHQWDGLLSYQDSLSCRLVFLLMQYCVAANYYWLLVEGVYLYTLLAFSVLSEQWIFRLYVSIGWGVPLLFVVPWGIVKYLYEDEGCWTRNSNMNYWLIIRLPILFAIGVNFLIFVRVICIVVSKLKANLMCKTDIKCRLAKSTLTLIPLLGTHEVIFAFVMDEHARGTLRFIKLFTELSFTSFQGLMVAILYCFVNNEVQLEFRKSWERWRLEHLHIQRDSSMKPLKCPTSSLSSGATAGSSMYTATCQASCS

SMILES | EC50 (GLP-1R) | AUC(0-inf) ([1]; male, C57, mouse, in vivo, po) | AUC(0-t) ([1]; male, C57, mouse, in vivo, po) | Cmax ([1]; male, C57, mouse, in vivo, po) | MRT inf ([1]; male, C57, mouse, in vivo, po) | MRT last ([1]; male, C57, mouse, in vivo, po) | Tmax ([1]; male, C57, mouse, in vivo, po) | half-life ([1]; male, C57, mouse, in vivo, po) | further results
C#Cc1ccc(COc2cccc(N3CCN(Cc4nc5c(F)cc(C(=O)O)cc5n4C[C@@H]4CCO4)CC3)n2)c(Cl)c1 [Compound 12] | 410 pM | – | – | – | – | – | – | – | –
C#Cc1ccc(COc2nc(N3CCN(Cc4nc5ccc(C(=O)O)nc5n4C[C@@H]4CCO4)CC3)ccc2F)c(Cl)c1 [Compound 18] | 370 pM | 4140 ng·h/mL | 4130 ng·h/mL | 1470 ng/mL | 3.1 h | 3.1 h | 0.5 h | 2.6 h | –
C#Cc1ccc(COc2cccc(C3CCN(Cc4nc5c(F)cc(C(=O)O)cc5n4C[C@@H]4CCO4)CC3)n2)c(F)c1 [Compound 11] | 140 pM | 2280 ng·h/mL | 2270 ng·h/mL | 2030 ng/mL | 1.9 h | 1.8 h | 0.5 h | 3.9 h | –
C#Cc1ccc(COc2cccc(N3CCN(Cc4nc5ccc(C(=O)O)cc5n4C[C@@H]4CCO4)CC3)n2)c(Cl)c1 [Compound 8] | 100 pM | 10900 ng·h/mL | 10900 ng·h/mL | 4370 ng/mL | 2.5 h | 2.5 h | 1 h | 2.3 h | –
C#Cc1ccc(COc2nc(N3CCN(Cc4nc5ccc(C(=O)O)cc5n4C[C@@H]4CCO4)CC3)ccc2F)c(F)c1 [Compound 10] | 100 pM | 9800 ng·h/mL | 9780 ng·h/mL | 4350 ng/mL | 2.6 h | 2.5 h | 0.5 h | 2.7 h | –
N#Cc1ccc(COc2cccc(C3CCN(Cc4nc5ccc(C(=O)O)cc5n4C[C@@H]4CCO4)CC3)n2)c(F)c1 [PF-06882961, reference compound] | – | – | – | – | – | – | – | – | effects on blood glucose and weight [2]: significant effects on reducing blood glucose and weight; AUC(0-t) ([1]; male C57 mice, intragastric): 3427.0 ng·h/mL; AUC(0-∞) ([1]; male C57 mice, intragastric): 3444.0 ng·h/mL; Cmax ([1]; male C57 mice, intragastric): 4967.0 ng/mL; MRT(0-t) ([1]; male C57 mice, intragastric): 0.8 h; MRT(0-∞) ([1]; male C57 mice, intragastric): 0.8 h; T1/2 ([1]; male C57 mice, intragastric): 1.4 h; Tmax ([1]; male C57 mice, intragastric): 0.25 h
O=C(O)c1ccc2nc(CN3CCN(c4cccc(OCc5ccc(C#CC6CC6)cc5F)n4)CC3)n(C[C@@H]3CCO3)c2c1 [Compound 4] | 1750 pM | – | – | – | – | – | – | – | –
C#Cc1ccc(COc2nc(N3CCN(Cc4nc5ccc(C(=O)O)cc5n4C[C@@H]4CCO4)CC3)ccc2F)cc1 [Compound 15] | 850 pM | – | – | – | – | – | – | – | –
C#Cc1ccc(COc2nc(N3CCN(Cc4nc5ccc(C(=O)O)cc5n4C[C@@H]4CCO4)CC3)ccc2F)c(Cl)c1 [Compound 19] | 510 pM | 10300 ng·h/mL | 10300 ng·h/mL | 3300 ng/mL | 2.7 h | 2.7 h | 0.5 h | 2.4 h | –
CC#Cc1ccc(COc2cccc(N3CCN(Cc4nc5ccc(C(=O)O)cc5n4C[C@@H]4CCO4)CC3)n2)c(F)c1 [Compound 3] | 800 pM | – | – | – | – | – | – | – | –
C#Cc1ccc(COc2cccc(C3CCN(Cc4nc5ccc(C(=O)O)cc5n4C[C@@H]4CCO4)CC3)n2)c(F)c1 [Compound 1] | 820 pM | 3560 ng·h/mL | 3310 ng·h/mL | 1700 ng/mL | 1.8 h | 1.5 h | 0.5 h | 2.2 h | –
C#Cc1ccc(COc2cccc(N3CCN(Cc4nc5ccc(C(=O)O)nc5n4C[C@@H]4CCO4)CC3)n2)c(F)c1 [Compound 9] | 150 pM | 3920 ng·h/mL | 3880 ng·h/mL | 2620 ng/mL | 1.4 h | 1.3 h | 0.5 h | 1.4 h | –
O=C(O)c1ccc2nc(CN3CCN(c4cccc(OCc5ccc(C#CCO)cc5F)n4)CC3)n(C[C@@H]3CCO3)c2c1 [Compound 5] | 5200 pM | – | – | – | – | – | – | – | –
C#Cc1ccc(COc2cccc(N3CCN(Cc4nc5ccc(C(=O)O)cc5n4C[C@@H]4CCO4)CC3)n2)c(F)c1 [Compound 2] | 960 pM | 7010 ng·h/mL | 6930 ng·h/mL | 3170 ng/mL | 3 h | 2.8 h | 0.5 h | 2.6 h | blood glucose reducing effect ([3]; 2 g/kg glucose i.p.): significant blood glucose reducing effect; overall blood glucose-reducing effect compared with PF-06882961 ([3]; IPGTT): better than PF-06882961
C#Cc1ccc(COc2nc(N3CCN(Cc4nc5ccc(C(=O)O)nc5n4C[C@@H]4CCO4)CC3)ccc2F)c(F)c1 [Compound 17] | 560 pM | 5140 ng·h/mL | 5130 ng·h/mL | 2830 ng/mL | 1.9 h | 1.9 h | 0.25 h | 3 h | –
C#Cc1ccc(COc2nc(C3CCN(Cc4nc5ccc(C(=O)O)nc5n4C[C@@H]4CCO4)CC3)ccc2F)c(F)c1 [Compound 20] | 590 pM | – | – | – | – | – | – | – | –
C#Cc1ccc(COc2nc(N3CCN(Cc4nc5ccc(C(=O)O)nc5n4C[C@@H]4CCO4)CC3)ccc2F)cc1 [Compound 16] | 1070 pM | – | – | – | – | – | – | – | –
C#Cc1ccc(COc2cccc(N3CCN(Cc4nc5ccc(C(=O)O)cc5n4C[C@@H]4CCO4)CC3)n2)cc1 [Compound 7] | 390 pM | 12500 ng·h/mL | 12500 ng·h/mL | 6170 ng/mL | 2 h | 2 h | 0.5 h | 3.1 h | –
